Source: patent US7262003B2, “Plant test procedure to detect natural, semi-synthetic, synthetic compounds and physical stress factors through expression of distinct responses” (Council of Scientific and Industrial Research, priority 1998, dated 2007)
Entries after “also recorded” stand apart in the source; their conditions may differ. Like-named read-outs stand apart in the source and are kept apart here.

Columns and labels:
[1] = test system: regenerants of Bacopa monniera; settings: cited from earlier work
[2] = test system: Bacopa monnieri leaf, internode and twig cuttings; assay: Response of leaf, internode and twig cutting explants to growth promoters (auxins, cytokinins) in MS 0 medium; type: in vivo; settings: for Response observed, Cutting: MS 0 medium containing 1.0 mg/litre; for Response observed, Cutting / Response observed, Internode / Response observed, Leaf: recorded up to two weeks; for Response of leaf, internode and cuttings: MS 0 supplemented at 0.5 and 1.0 mg/litre
Description: Initially the experiments were designed to observe the response of leaf, internode and cuttings against growth promoters (auxins: 2,4-D & Indole acetic acid) and […] (cytokinins: 6-Benzyl amino purine & kinetin). The basal medium for studying the response was MS 0 (Murashige T and Skoog F, 1962, Physiol. Planta. 15: 473–497) supplemented with these growth regulators at the rates of 0.5 and 1.0 mg/litre along with a control of just the basal medium.
The basal medium for studying the response was MS 0 (Murashige T and Skoog F, 1962, Physiol. Planta. 15: 473–497) supplemented with test compounds along with a control of just the basal medium. Measured 0.5 ml medium was poured into 1.5 ml graduated microcentrifuge tubes. Into this, twig cutting of 2.5 cm were inoculated in 20 replicates for each type of medium. These inoculated tubes were put into a half transparent (top lid) box allowing air passage through sterile cotton plugs such that the medium containing portion of the tubes where roots would be initiating is inserted into the stand holes made from a thermocol sheet. Refer FIG. 1 of Sheet #1. […] Such boxes were incubated at normal ambient temperature of 25–28° C. with 14 hours light and 10 hours dark cycle.
To find out the effect of growth promoters such as Indole 3 acetic acid (IAA), 2,4-Dichlorophenoxy acetic acid (2,4-D), and cytokinins such as 6-Benzyl Amino Purine (6-BAP) and Kinetin, the leaf, internode and twig cuttings were inoculated into MS 0 medium containing […] of the above said compounds and the responses were recorded up to two weeks in terms of rooting, callusing and shoot regeneration (Table 1).

Bacopa root tips = type: in vivo, Bacopa monnieri
[3] = test system: Bacopa monnieri twig cuttings; type: in vivo
[4] = test system: Avocado cv. Verde in vitro; settings: antibiotic in the plant growth medium; cited from earlier work
Bacopa monnieri twigs [5] = assay: Cytotoxic/weedicidal effect: menthol in medium and Mentha arvensis oil sprayed on twigs; type: in vivo; settings: menthol added to the medium and oil sprayed on the twigs
Description: We also planned the experiments to determine if this procedure can depict a clear cut manifestation of cytotoxic/weedicidal effect of compounds. For this purpose we used a known essential oil of Mentha arvensis, which is rich in the toxic but useful component, menthol as the treatment. The procedure involved was same as in the above examples with the exception that menthol was added to the medium and oil was sprayed on these twigs which were inoculated into the medium. […] Refer to FIG. #4 of Sheet #2.

Bacopa cultures = settings: in vivo; cited from earlier work
Bacopa monnieri twigs [6] = assay: Growth inhibitor test on twigs in basal MS media; type: in vivo; settings: after 10 days of inoculation
Description: The basal medium for studying the response was MS 0 (Murashige T and Skoog F, 1962, Physiol. Planta. 15: 473–497) supplemented with test compounds along with a control of just the basal medium. Measured 0.5 ml medium was poured into 1.5 ml graduated microcentrifuge tubes. Into this, twig cutting of 2.5 cm were inoculated in 20 replicates for each type of medium. These inoculated tubes were put into a half transparent (top lid) box allowing air passage through sterile cotton plugs such that the medium containing portion of the tubes where roots would be initiating is inserted into the stand holes made from a thermocol sheet. Refer FIG. 1 of Sheet #1. This set up was helpful in preventing the light exposure to the root portion while at the same time aerial parts got sufficient light and aeration. Such boxes were incubated at normal ambient temperature of 25–28° C. with 14 hours light and 10 hours dark cycle. […] The earliest response was seen was on day 3 in the case of medium containing ¼th level of nitrogen followed by medium containing normal level of nitrogen, while in the case of zero nitrogen, initiation was observed only after 8 days. Thus, the medium with ¼ nitrogen level of standard MS basal medium was selected for root assays and was referred as MSR (rooting) medium.
The effects of growth inhibitors were also tested using the protocol as described in Example 1. […]

[7] = 10 and 100 μg/ml in MSR, up to day 15
[8] = concentrations ranging from 1 to 100 μg/ml, 14 days

[Cd] [Cd, cadmium]
Concentration tolerated ([1]; grown with additional supply of Cu): up to 100 μM
Concentration beyond which regenerants did not survive ([1]; in vivo): 50 µM

c1ccc(CNc2ncnc3nc[nH]c23)cc1 [BAP, 6-Benzyl Amino Purine]
Response observed, Cutting [2]: Root Initiation and Root
Response observed, Internode ([2]; MS 0 medium containing 1 mg/ml): Callus Initiation; also recorded: Shoot
Response observed, Leaf ([2]; MS 0 medium containing 1 mg/ml): Callus Initiation; also recorded: Shoot
Response of leaf and internodal explant ([2]; MS 0 medium containing 1 mg/ml, up to two weeks): green callus has formed, followed by shoot regeneration
Response of leaf, internode and cuttings [2]: green callus developed in all three explants followed by shoot regeneration

CC(=O)O[C@H]1C(=O)[C@@]2(C)[C@H]([C@H](OC(=O)c3ccccc3)[C@]3(O)C[C@H](OC(=O)[C@H](O)[C@@H](NC(=O)c4ccccc4)c4ccccc4)C(C)=C1C3(C)C)[C@]1(OC(C)=O)CO[C@@H]1C[C@@H]2O [Taxol, taxol]
Effect on mitotic index (words) (Bacopa root tips; 10 μg/ml): significantly reduce the mitotic index
Reduction of mitotic index compared to untreated control samples (Bacopa root tips; 10 μg/ml): 2.55 fold
Number of cells in phase Ana (Bacopa root tips; 10 μg/ml, dipping 3 hours): 01
Number of cells in phase Meta (Bacopa root tips; 10 μg/ml, dipping 3 hours): 03
Number of cells in phase Pro (Bacopa root tips; 10 μg/ml, dipping 3 hours): 01
Number of cells in phase Telo (Bacopa root tips; 10 μg/ml, dipping 3 hours): 00
Mitotic Index (Bacopa root tips; 10 μg/ml, dipping 3 hours, 10 randomly selected fields): 7.14 ± 1.52
Effect on mitotic index (words) (Bacopa root tips; 10 μg/ml, listed as taxol): substantial reduction in the mitotic index
Cell division in the root tips (Bacopa root tips; 100 μg/ml): inhibited almost complete cell division
Root initiation [3, 7]: inhibited the complete root initiation
Visible effect on the aerial parts [3, 7]: wilting of the leaves
Root initiation [3, 8]: did not initiate the roots at all
Shoot growth and health [3, 8]: no shoot growth; also recorded: wilting and later withering

O=C(N[C@H](CO)[C@H](O)c1ccc([N+](=O)[O-])cc1)C(Cl)Cl [chloramphenicol]
Toxicity to avocado (length of sprouts reduced) [4]: toxic

O=C(O)Cc1c[nH]c2ccccc12 [IAA, Indole 3 acetic acid]
Response observed, Cutting [2]: Aerial Root
Response observed, Internode ([2]; MS 0 medium containing 1 mg/ml): Root Initiation
Response observed, Leaf ([2]; MS 0 medium containing 1 mg/ml): Root Initiation
Response of leaf, internode and cuttings [2]: profuse rooting

O=C(O)COc1ccc(Cl)cc1Cl [2,4-D, 2,4-Dichlorophenoxy acetic acid]
Response observed, Cutting [2]: Aerial Root
Response observed, Internode ([2]; MS 0 medium containing 1 mg/ml): Root Initiation; also recorded: Root Thickening; also recorded: Explant Swelling
Response observed, Leaf ([2]; MS 0 medium containing 1 mg/ml): Root Initiation; also recorded: Root Thickening; also recorded: Callus Initiation
Response of leaf, internode and cuttings [2]: small thick roots got initiated at the internodes

CC1CCC(C(C)C)C(O)C1 (centres unmarked) [menthol]
Spread of chlorophyll loss (Bacopa monnieri twigs [5]): within a week time covered whole twig

c1coc(CNc2ncnc3[nH]cnc23)c1 [Kinetin]
Response observed, Cutting [2]: Root Initiation and Root
Response observed, Internode ([2]; MS 0 medium containing 1 mg/ml): No Response
Response observed, Leaf ([2]; MS 0 medium containing 1 mg/ml): Root Initiation

[H]/N=C(/N)N[C@H]1[C@H](O)[C@@H](O)[C@H](O[C@@H]2O[C@@H](C)[C@](O)(C=O)[C@H]2O[C@@H]2O[C@@H](CO)[C@H](O)[C@@H](O)[C@@H]2NC)[C@@H](N/C(N)=N\[H])[C@@H]1O [streptomycin]
Toxicity to avocado (length of sprouts reduced) [4]: toxic

[Cl][Al]([Cl])[Cl] [AlCl3]
Concentration beyond which Bacopa cultures could not survive (Bacopa cultures): 400 µM

CCn1cc(C(=O)O)c(=O)c2ccc(C)nc21 [nalidixic acid, Nalidixic acid]
Toxicity to avocado (length of sprouts reduced) [4]: toxic
Root initiation and growth (Bacopa monnieri twigs [6]; 10 μg/ml): roots got initiated from the submerged nodes but their growth was less than the control
Root initiation and growth (Bacopa monnieri twigs [6]; 100 μg/ml): very small roots arose from submerged node and their growth was completely arrested
